Paper PMC11079024, “Identification of a family of species-selective complex I inhibitors as potential anthelmintics” (Nature Communications, 2024)
Where “and” joins values, the source holds several entries; their conditions need not be identical. Equal values may be shown once. Read-outs that look alike come from different tables or passages of the source.

Biological target: C. elegans (N2) complex I (NADH:ubiquinone oxidoreductase) (Caenorhabditis elegans, UniProt P24887+Q93873+Q94360)
Assay: biochemical
Assay type: biochemical
Settings: for remaining activity at 15 µM / remaining activity at 37.5 µM / remaining activity at 75 µM: wild-type C. elegans mitochondria, read-out: percent (%) in vitro complex I activity relative to solvent control
How it was run: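 Activity expressed as percent of solvent control. Complex I rate came from DCIP reduction at 600 nm (initial linear slope, 15 min) with NADH and decylubiquinone as substrates, plus antimycin A and KCN, in pH 7.5 KPi/BSA buffer. Isolated, thrice freeze-thawed mitochondria used at 0.2 mg/mL.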

[1] = C. elegans, Mean of replicates, read-out: Complex I activity, dose-response data
[2] = C. elegans, individual replicates (Rep), read-out: Complex I activity, dose-response data

Sequence of C. elegans (N2) complex I (NADH:ubiquinone oxidoreductase) (Q94360 17-199): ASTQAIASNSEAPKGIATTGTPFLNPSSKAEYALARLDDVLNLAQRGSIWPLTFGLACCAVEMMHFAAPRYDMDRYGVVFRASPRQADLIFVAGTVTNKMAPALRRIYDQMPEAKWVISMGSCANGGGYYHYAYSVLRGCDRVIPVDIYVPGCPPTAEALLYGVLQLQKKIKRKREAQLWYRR
Sequence of C. elegans (N2) complex I (NADH:ubiquinone oxidoreductase) (P24887 whole entry): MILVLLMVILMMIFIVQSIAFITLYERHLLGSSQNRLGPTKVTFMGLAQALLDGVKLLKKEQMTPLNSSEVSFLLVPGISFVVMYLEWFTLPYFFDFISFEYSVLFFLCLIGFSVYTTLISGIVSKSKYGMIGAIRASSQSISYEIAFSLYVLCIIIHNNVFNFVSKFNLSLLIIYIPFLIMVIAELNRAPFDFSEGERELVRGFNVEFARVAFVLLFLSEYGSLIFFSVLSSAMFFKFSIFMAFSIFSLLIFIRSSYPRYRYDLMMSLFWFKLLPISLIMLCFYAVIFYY
Sequence of C. elegans (N2) complex I (NADH:ubiquinone oxidoreductase) (Q93873 31-482): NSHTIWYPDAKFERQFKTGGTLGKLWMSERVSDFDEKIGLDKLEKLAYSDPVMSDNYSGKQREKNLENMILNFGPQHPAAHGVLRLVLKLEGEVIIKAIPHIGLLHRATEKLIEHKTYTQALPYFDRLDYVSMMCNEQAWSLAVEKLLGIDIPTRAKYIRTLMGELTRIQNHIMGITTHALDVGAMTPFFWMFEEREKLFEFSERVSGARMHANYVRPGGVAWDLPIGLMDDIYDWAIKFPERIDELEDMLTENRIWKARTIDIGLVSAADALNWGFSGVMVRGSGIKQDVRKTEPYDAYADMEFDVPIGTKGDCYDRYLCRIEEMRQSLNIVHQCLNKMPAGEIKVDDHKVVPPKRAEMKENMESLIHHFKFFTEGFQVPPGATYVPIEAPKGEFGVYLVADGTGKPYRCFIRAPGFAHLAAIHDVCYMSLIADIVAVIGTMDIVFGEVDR

With COc1cc2c(cc1OC)C(c1ccc(-c3ccc(Cl)c(Cl)c3)o1)=NCC2 [NPD3577] the remaining activity at 15 µM (mean of replicates) was 62.2%, the remaining activity at 15 µM (single replicate) was 62.5% and the remaining activity at 37.5 µM (mean of replicates) was 42.6%. The remaining activity at 37.5 µM (single replicate) was 37.8%, the remaining activity at 75 µM (mean of replicates) was 40.7% and the remaining activity at 75 µM (single replicate) was 36.7%. For the same compound, the activity at 100 µM (100 µM compound, relative to solvent control, mean (SEM), read-out: % Activity Complex I) was 36.8%, the “Percent in vitro activity, Complex I (single replicate Rep1-Rep4)” value (100 μM of NPD compound, C. elegans mitochondria, individual biological replicates, 100 µM) was 43.782% and 34.898% and 43.141% and the activity at 100 µM (100 μM of NPD compound, C. elegans mitochondria, individual biological replicates, read-out: Percent in vitro activity, Complex I (single replicate Rep1-Rep4)) was 25.5%. For the same compound, the activity at 100 µM (100 μM of NPD compound, C. elegans mitochondria, mean of four biological replicates, read-out: Percent in vitro activity, Complex I (Mean)) was 36.8%, the activity at 0.0001 µM [1] was 100% and the activity at 0.0001 µM [2] was 100%. The activity at 0.0005 µM (C. elegans, dose 0.0005 µM, Mean of replicates, read-out: Complex I activity, dose-response data) was 101%, the “Complex I activity, dose-response data” value (C. elegans, dose 0.0005 µM, individual replicates (Rep)) was 102.944 and 101.488 and 99.964 and the activity at 0.0005 µM (C. elegans, dose 0.0005 µM, individual replicates (Rep), read-out: Complex I activity, dose-response data) was 99.8%. For the same compound, the activity at 0.001 µM (C. elegans, dose 0.001 µM, Mean of replicates, read-out: Complex I activity, dose-response data) was 107%, the “Complex I activity, dose-response data” value (C. elegans, dose 0.001 µM, individual replicates (Rep)) was 100.123 and 101.601 and 102.139 and 122.392 and the activity at 0.0025 µM (C. elegans, dose 0.0025 µM, Mean of replicates, read-out: Complex I activity, dose-response data) was 108%. The “Complex I activity, dose-response data” value (C. elegans, dose 0.0025 µM, individual replicates (Rep)) was 107.455 and 110.182 and 112.130, the activity at 0.0025 µM (C. elegans, dose 0.0025 µM, individual replicates (Rep), read-out: Complex I activity, dose-response data) was 102% and the activity at 0.005 µM (C. elegans, dose 0.005 µM, Mean of replicates, read-out: Complex I activity, dose-response data) was 104%. For the same compound, the “Complex I activity, dose-response data” value (C. elegans, dose 0.005 µM, individual replicates (Rep)) was 104.715 and 108.539 and 101.437, the activity at 0.005 µM (C. elegans, dose 0.005 µM, individual replicates (Rep), read-out: Complex I activity, dose-response data) was 100% and the activity at 0.013 µM (C. elegans, dose 0.013 µM, Mean of replicates, read-out: Complex I activity, dose-response data) was 97.9%. The “Complex I activity, dose-response data” value (C. elegans, dose 0.013 µM, individual replicates (Rep)) was 98.157 and 103.636 and 111.482 and 78.345, the activity at 0.025 µM (C. elegans, dose 0.025 µM, Mean of replicates, read-out: Complex I activity, dose-response data) was 98.1% and the “Complex I activity, dose-response data” value (C. elegans, dose 0.025 µM, individual replicates (Rep)) was 97.798 and 102.639 and 113.034 and 78.823. The activity at 0.063 µM (C. elegans, dose 0.063 µM, Mean of replicates, read-out: Complex I activity, dose-response data) was 101%, the “Complex I activity, dose-response data” value (C. elegans, dose 0.063 µM, individual replicates (Rep)) was 101.240 and 102.785 and 102.967 and the activity at 0.063 µM (C. elegans, dose 0.063 µM, individual replicates (Rep), read-out: Complex I activity, dose-response data) was 97%. For the same compound, the activity at 0.125 µM (C. elegans, dose 0.125 µM, Mean of replicates, read-out: Complex I activity, dose-response data) was 96.8%, the “Complex I activity, dose-response data” value (C. elegans, dose 0.125 µM, individual replicates (Rep)) was 97.708 and 99.291 and 93.354 and the activity at 0.125 µM (C. elegans, dose 0.125 µM, individual replicates (Rep), read-out: Complex I activity, dose-response data) was 96.7%. For the same compound, the activity at 0.313 µM (C. elegans, dose 0.313 µM, Mean of replicates, read-out: Complex I activity, dose-response data) was 92.4%, the “Complex I activity, dose-response data” value (C. elegans, dose 0.313 µM, individual replicates (Rep)) was 97.105 and 93.945 and 86.205 and the activity at 0.313 µM (C. elegans, dose 0.313 µM, individual replicates (Rep), read-out: Complex I activity, dose-response data) was 92.5%. The activity at 0.625 µM [1] was 100%, the activity at 0.625 µM [2] was 100% and the activity at 1.5 µM (C. elegans, dose 1.5 µM, Mean of replicates, read-out: Complex I activity, dose-response data) was 94.3%. For the same compound, the “Complex I activity, dose-response data” value (C. elegans, dose 1.5 µM, individual replicates (Rep)) was 94.111 and 90.424 and 96.414, the activity at 1.5 µM (C. elegans, dose 1.5 µM, individual replicates (Rep), read-out: Complex I activity, dose-response data) was 96.2% and the activity at 3 µM (C. elegans, dose 3 µM, Mean of replicates, read-out: Complex I activity, dose-response data) was 92.6%. For the same compound, the “Complex I activity, dose-response data” value (C. elegans, dose 3 µM, individual replicates (Rep)) was 91.612 and 93.694 and 91.331, the activity at 3 µM (C. elegans, dose 3 µM, individual replicates (Rep), read-out: Complex I activity, dose-response data) was 93.9% and the activity at 15 µM (C. elegans, dose 15 µM, Mean of replicates, read-out: Complex I activity, dose-response data) was 62.2%. For the same compound, the “Complex I activity, dose-response data” value (C. elegans, dose 15 µM, individual replicates (Rep)) was 63.065 and 59.782 and 63.349, the activity at 15 µM (C. elegans, dose 15 µM, individual replicates (Rep), read-out: Complex I activity, dose-response data) was 62.5% and the activity at 37.5 µM (C. elegans, dose 37.5 µM, Mean of replicates, read-out: Complex I activity, dose-response data) was 42.6%. The “Complex I activity, dose-response data” value (C. elegans, dose 37.5 µM, individual replicates (Rep)) was 41.693 and 41.389 and 49.686, the activity at 37.5 µM (C. elegans, dose 37.5 µM, individual replicates (Rep), read-out: Complex I activity, dose-response data) was 37.8% and the activity at 75 µM (C. elegans, dose 75 µM, Mean of replicates, read-out: Complex I activity, dose-response data) was 40.7%. The “Complex I activity, dose-response data” value (C. elegans, dose 75 µM, individual replicates (Rep)) was 47.397 and 37.818 and 40.786, the activity at 75 µM (C. elegans, dose 75 µM, individual replicates (Rep), read-out: Complex I activity, dose-response data) was 36.7% and the IC50 (wild-type (N2) mitochondria, read-out: C. elegans Complex I IC50) was 12.1 µM.
